Data published in US11427548B2 (Arvinas Operations, Inc., priority 2015, dated 2022).

Molecular target: T1, Androgen Receptor (Homo sapiens, UniProt P10275)
T1 construct: endogenous in cells; host or cells: VCaP cells
T1 sequence (P10275 1-920): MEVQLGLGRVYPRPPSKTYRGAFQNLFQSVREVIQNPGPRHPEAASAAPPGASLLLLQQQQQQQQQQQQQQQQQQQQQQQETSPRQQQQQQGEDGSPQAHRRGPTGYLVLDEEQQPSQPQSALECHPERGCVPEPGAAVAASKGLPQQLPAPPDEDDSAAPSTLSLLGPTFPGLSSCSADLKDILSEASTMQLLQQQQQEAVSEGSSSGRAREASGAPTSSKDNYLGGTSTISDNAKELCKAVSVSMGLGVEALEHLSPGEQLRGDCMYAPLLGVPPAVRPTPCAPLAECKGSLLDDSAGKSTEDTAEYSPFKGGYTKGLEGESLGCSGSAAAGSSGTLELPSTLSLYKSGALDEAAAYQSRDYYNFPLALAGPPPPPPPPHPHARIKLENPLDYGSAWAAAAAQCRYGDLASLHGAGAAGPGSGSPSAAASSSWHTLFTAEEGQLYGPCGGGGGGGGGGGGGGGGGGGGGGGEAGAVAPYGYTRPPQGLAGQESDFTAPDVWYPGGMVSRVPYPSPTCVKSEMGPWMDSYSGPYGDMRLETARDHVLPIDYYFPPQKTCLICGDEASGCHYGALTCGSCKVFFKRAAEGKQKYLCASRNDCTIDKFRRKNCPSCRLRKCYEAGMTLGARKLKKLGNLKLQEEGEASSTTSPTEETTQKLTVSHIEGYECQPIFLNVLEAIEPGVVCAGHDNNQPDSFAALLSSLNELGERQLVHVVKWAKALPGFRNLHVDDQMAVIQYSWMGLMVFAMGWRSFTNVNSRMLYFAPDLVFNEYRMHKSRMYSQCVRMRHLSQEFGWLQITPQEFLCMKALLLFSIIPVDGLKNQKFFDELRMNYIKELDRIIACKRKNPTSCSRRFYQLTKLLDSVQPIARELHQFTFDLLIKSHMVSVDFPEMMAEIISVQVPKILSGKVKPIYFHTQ
Assay: Androgen Receptor ELISA assay (PathScan AR ELISA) in VCaP cells: AR degradation, Dmax and DC50
Assay type: cell-based
Conditions: for Dmax: VCaP, read-out: VCaP Dmax (%); for DC50: read-out: VCaP DC50, concentration that caused 50% Androgen Receptor degradation, VCaP cells (Table 32)
Method in brief: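 VCaP cells, 30,000/well, grown ≥3 days in phenol red-free RPMI with 5% charcoal-stripped FBS; compound added in 0.1% DMSO with 0.1 nM R1881, 7 half-log doses, 24 h. Lysate AR quantified by PathScan sandwich ELISA, HRP/TMB read at 450 nm, giving DC50 and Dmax.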

| Compound | Dmax [%] | DC50 [nM] |
| --- | --- | --- |
| CC(C)(C)[C@H](NC(=O)COCCCCOc1ccc(-c2ccc(N3C(=S)N(c4ccc(C#N)c(C(F)(F)F)c4)C(=O)C3(C)C)c(F)c2)cc1)C(=O)N1C[C@H](O)C[C@H]1C(=O)NCc1ccc(-c2cncs2)cc1 [Example 117, (2S,4R)-1-[(2S)-2-(2-{4-[4-(4-{3-[4-cyano-3-(trifluoromethyl)phenyl]-5,5-dimethyl-4-oxo-2-sulfanylideneimidazolidin-1-yl}-3-fluorophenyl)phen-oxy]butoxy}acetamido)-3,3-dimethylbutanoyl]-4-hydroxy-N-{[4-(1,3-thiazol-5-yl)phenyl]methyl}pyrrolidine-2-carboxamide] | > 71 | < 50 |
| Cc1ncsc1-c1ccc(CNC(=O)[C@@H]2C[C@@H](O)CN2C(=O)[C@@H](NC(=O)COCCCCOc2ccc(-c3ccc(N4C(=S)N(c5ccc(C#N)c(C(F)(F)F)c5)C(=O)C4(C)C)c(F)c3)cc2)C(C)(C)C)cc1 [Example 118, (2S,4R)-1-[(2S)-2-(2-{4-[4-(4-{3-[4-cyano-3-(trifluoromethyl)phenyl]-5,5-dimethyl-4-oxo-2-sulfanylideneimidazolidin-1-yl}-3-fluorophenyl)phen-oxy]butoxy}acetamido)-3,3-dimethylbutanoyl]-4-hydroxy-N-{[4-(4-methyl-1,3-thiazol-5-yl)phenyl]methyl}pyrrolidine-2-carboxamide] | > 71 | < 50 |
| Cc1ncoc1-c1ccc(CNC(=O)[C@@H]2C[C@@H](O)CN2C(=O)[C@@H](NC(=O)COCCCCOc2ccc(-c3ccc(N4C(=S)N(c5ccc(C#N)c(C(F)(F)F)c5)C(=O)C45CCC5)cc3)cc2)C(C)(C)C)cc1 [Example 119, (2S,4R)-1-[(2S)-2-(2-{4-[4-(4-{7-[4-cyano-3-(trifluoromethyl)phenyl]-8-oxo-6-sulfanylidene-5,7-diazaspiro[3.4]octan-5-yl}phenyl)phenoxy]butoxy}acetamido)-3,3-dimethylbutanoyl]-4-hydroxy-N-{[4-(4-methyl-1,3-oxazol-5-yl)phenyl]methyl}pyrrolidine-2-carboxamide] | 51 to 70 | < 50 |
| Cc1ncsc1-c1ccc(CNC(=O)[C@@H]2C[C@@H](O)CN2C(=O)[C@@H](NC(=O)COCCCCOc2ccc(-c3ccc(N4C(=S)N(c5ccc(C#N)c(C(F)(F)F)c5)C(=O)C45CCC5)cc3)cc2)C(C)(C)C)cc1 [Example 120, (2S,4R)-1-[(2S)-2-(2-{4-[4-(4-{7-[4-cyano-3-(trifluoromethyl)phenyl]-8-oxo-6-sulfanylidene-5,7-diazaspiro[3.4]octan-5-yl}phenyl)phenoxy]butoxy}acetamido)-3,3-dimethylbutanoyl]-4-hydroxy-N-{[4-(4-methyl-1,3-thiazol-5-yl)phenyl]methyl}pyrrolidine-2-carboxamide] | > 71 | < 50 |
| CC(C)(C)[C@H](NC(=O)COCCCCOc1ccc(-c2ccc(N3C(=S)N(c4ccc(C#N)c(Cl)c4)C(=O)C3(C)C)cc2)c(F)c1)C(=O)N1C[C@H](O)C[C@H]1C(=O)NCc1ccc(-c2cnco2)cc1 [Example 121, (2S,4R)-1-[(2S)-2-{2-[4-(4-{4-[3-(3-chloro-4-cyanophenyl)-5,5-dimethyl-4-oxo-2-sulfanylideneimidazolidin-1-yl]phenyl}-3-fluorophenoxy)butoxy]acetamido}-3,3-dimethylbutanoyl]-4-hydroxy-N-{[4-(1,3-oxazol-5-yl)phenyl]methyl}pyrrolidine-2-carboxamide] | > 71 | < 50 |
| CC(C)(C)[C@H](NC(=O)COCCCCOc1ccc(-c2ccc(N3C(=S)N(c4ccc(C#N)c(C(F)(F)F)c4)C(=O)C3(C)C)cc2)cc1)C(=O)N1C[C@H](O)C[C@H]1C(=O)NCc1ccc(-c2ccn[nH]2)cc1 [Example 122, (2S,4R)-1-[(2S)-2-(2-{4-[4-(4-{3-[4-cyano-3-(trifluoromethyl)phenyl]-5,5-dimethyl-4-oxo-2-sulfanylideneimidazolidin-1-yl}phenyl)phenoxy]butoxy}acetamido)-3,3-dimethylbutanoyl]-4-hydroxy-N-{[4-(1H-pyrazol-5-yl)phenyl]methyl}pyrrolidine-2-carboxamide] | > 71 | < 50 |
